According to patent US11446287B2, “Compounds and methods for EP300 or CBP modulation and indications therefor” (Opna Immuno-Oncology SA, priority 2019, dated 2022):

Target: T1, Recombinant human CBP containing the bromodomain (CBP-BD (1043-1159)) (Homo sapiens, UniProt Q92793)
T1 construct: Recombinant human CBP bromodomain (CBP-BD (1043-1159)); made in house; host or cells: E. coli BL21-CodonPlus (DE3), modified pET vector
Assay: CBP Alphascreen binding assay
Details: read-out: CREBBP (CBP) IC50
How it was run: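 Buffer: 50 mM HEPES pH 7.5, 50 mM NaCl, 0.01% BSA, 0.01% Triton X-100, 2 mM DTT. The signal was normalised to plate controls and fitted with a four-parameter curve to give IC50.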

T1 sequence (Q92793 1081-1197): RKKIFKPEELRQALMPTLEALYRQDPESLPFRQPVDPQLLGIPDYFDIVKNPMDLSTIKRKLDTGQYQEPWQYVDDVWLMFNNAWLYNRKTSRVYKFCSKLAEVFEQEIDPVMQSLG

Row | SMILES | IC50
1 | Cc1noc(C)c1-c1cnc2c(c1)c(-c1ccc(C(=O)O)cc1OC(F)(F)F)cn2C1CCOCC1 [P-0226, 4-(5-(3,5-dimethylisoxazol-4-yl)-1-(tetrahydro-2H-pyran-4-yl)-1H-pyrrolo[2,3-b]pyridin-3-yl)-3-(trifluoromethoxy)benzoic acid] | 0.0001 to 1 µM
2 | CCOc1cc(C(=O)O)cc(F)c1-n1cc(-c2ccccc2)c2ncc(-c3c(C)noc3C)cc21 [P-0205, 4-(6-(3,5-dimethylisoxazol-4-yl)-3-phenyl-1H-pyrrolo[3,2-b]pyridin-1-yl)-3-ethoxy-5-fluorobenzoic acid] | 0.0001 to 1 µM
3 | COc1cc(C(=O)O)cc(OC)c1-n1cc(-c2ccccc2)c2ncc(-c3c(C)noc3C)cc21 [P-0220, 4-(6-(3,5-dimethylisoxazol-4-yl)-3-phenyl-1H-pyrrolo[3,2-b]pyridin-1-yl)-3,5-dimethoxybenzoic acid] | 0.0001 to 1 µM
4 | COc1ccc(C(=O)O)cc1-c1cn(C(C)(c2ccccn2)c2ccccn2)c2cc(-c3c(C)noc3C)cnc12 [P-0172, 3-(1-(1,1-di(pyridin-2-yl)ethyl)-6-(3,5-dimethylisoxazol-4-yl)-1H-pyrrolo[3,2-b]pyridin-3-yl)-4-methoxybenzoic acid] | 1 to 8 µM
5 | Cc1noc(C)c1-c1cnc2c(-c3ccc(C(=O)O)c(F)c3)c(C(F)(F)F)n([C@@H](C)c3ccccn3)c2c1 [P-0242, (S)-4-(6-(3,5-dimethylisoxazol-4-yl)-1-(1-(pyridin-2-yl)ethyl)-2-(trifluoromethyl)-1H-pyrrolo[3,2-b]pyridin-3-yl)-2-fluorobenzoic acid] | 1 to 8 µM
6 | Cc1noc(C)c1-c1cnc2c(c1)c(-c1ccc(C(=O)O)cc1OC(F)(F)F)cn2-c1cc(F)ccc1F [P-0233, 4-(1-(2,5-difluorophenyl)-5-(3,5-dimethylisoxazol-4-yl)-1H-pyrrolo[2,3-b]pyridin-3-yl)-3-(trifluoromethoxy)benzoic acid] | 0.0001 to 1 µM
7 | Cc1noc(C)c1-c1cnc2c(c1)c(-c1ccc(C(=O)O)cc1OC(F)(F)F)cn2C(CC#N)C1CCCC1 (centres unmarked) [P-0200, 4-(1-(2-cyano-1-cyclopentylethyl)-5-(3,5-dimethylisoxazol-4-yl)-1H-pyrrolo[2,3-b]pyridin-3-yl)-3-(trifluoromethoxy)benzoic acid] | 0.0001 to 1 µM
8 | CCOc1cc(C(=O)O)cc(OCC)c1-n1cc(-c2ccc(F)cc2F)c2ncc(-c3c(C)noc3C)cc21 [P-0186, 4-(3-(2,4-difluorophenyl)-6-(3,5-dimethylisoxazol-4-yl)-1H-pyrrolo[3,2-b]pyridin-1-yl)-3,5-diethoxybenzoic acid] | 0.0001 to 1 µM
9 | CCOc1cc(C(=O)O)cc(OCC)c1-n1cc(-c2cnc(OC)nc2)c2ncc(-c3c(C)noc3C)cc21 [P-0201, 4-(6-(3,5-dimethylisoxazol-4-yl)-3-(2-methoxypyrimidin-5-yl)-1H-pyrrolo[3,2-b]pyridin-1-yl)-3,5-diethoxybenzoic acid] | 0.0001 to 1 µM
10 | Cc1noc(C)c1-c1cnc2c(-c3cc(Cl)cc(C(=O)O)c3)c(C(F)(F)F)n([C@@H](C)c3ccccn3)c2c1 [P-0241, (S)-3-chloro-5-(6-(3,5-dimethylisoxazol-4-yl)-1-(1-(pyridin-2-yl)ethyl)-2-(trifluoromethyl)-1H-pyrrolo[3,2-b]pyridin-3-yl)benzoic acid] | 0.0001 to 1 µM
11 | Cc1noc(C)c1-c1cnc2c(c1)c(-c1ccc(C(=O)O)cc1OC(F)(F)F)cn2-c1cnccc1C#N [P-0204, 4-(1-(4-cyanopyridin-3-yl)-5-(3,5-dimethylisoxazol-4-yl)-1H-pyrrolo[2,3-b]pyridin-3-yl)-3-(trifluoromethoxy)benzoic acid] | 0.0001 to 1 µM
12 | Cc1noc(C)c1-c1cnc2c(-c3ccccc3)cn(-c3ccc(C(=O)O)cc3OC(F)(F)F)c2c1 [P-0196, 4-(6-(3,5-dimethylisoxazol-4-yl)-3-phenyl-1H-pyrrolo[3,2-b]pyridin-1-yl)-3-(trifluoromethoxy)benzoic acid] | 0.0001 to 1 µM
13 | Cc1cnccc1-n1cc(-c2ccc(C(=O)O)cc2OC(F)(F)F)c2cc(-c3c(C)noc3C)cnc21 [P-0211, 4-(5-(3,5-dimethylisoxazol-4-yl)-1-(3-methylpyridin-4-yl)-1H-pyrrolo[2,3-b]pyridin-3-yl)-3-(trifluoromethoxy)benzoic acid] | 0.0001 to 1 µM
14 | Cc1noc(C)c1-c1cnc2c(c1)c(-c1ccc(C(=O)O)cc1OC(F)(F)F)cn2-c1ncccc1C#N [P-0215, 4-(1-(3-cyanopyridin-2-yl)-5-(3,5-dimethylisoxazol-4-yl)-1H-pyrrolo[2,3-b]pyridin-3-yl)-3-(trifluoromethoxy)benzoic acid] | 0.0001 to 1 µM
15 | Cc1noc(C)c1-c1cnc2c(c1)c(-c1ccc(C(=O)O)cc1OC(F)(F)F)cn2-c1cccnc1 [P-0175, 4-(5-(3,5-dimethylisoxazol-4-yl)-1-(pyridin-3-yl)-1H-pyrrolo[2,3-b]pyridin-3-yl)-3-(trifluoromethoxy)benzoic acid] | 0.0001 to 1 µM
16 | Cc1noc(C)c1-c1cnc2c(c1)c(-c1c(Cl)cc(C(=O)O)cc1OC(F)(F)F)cn2C(C1CC1)C1CC1 [P-0198, 3-chloro-4-(1-(dicyclopropylmethyl)-5-(3,5-dimethylisoxazol-4-yl)-1H-pyrrolo[2,3-b]pyridin-3-yl)-5-(trifluoromethoxy)benzoic acid] | 0.0001 to 1 µM
17 | Cc1noc(C)c1-c1cnc2c(c1)c(-c1ccc(C(=O)O)cc1OC(F)(F)F)cn2C1CCS(=O)(=O)CC1 [P-0212, 4-(5-(3,5-dimethylisoxazol-4-yl)-1-(1,1-dioxidotetrahydro-2H-thiopyran-4-yl)-1H-pyrrolo[2,3-b]pyridin-3-yl)-3-(trifluoromethoxy)benzoic acid] | 0.0001 to 1 µM
18 | Cc1noc(C)c1-c1cnc2c(c1)c(-c1ccc(C(=O)O)cc1OC1CC1)cn2[C@@H](C)c1ccccn1 [P-0170, (S)-3-cyclopropoxy-4-(5-(3,5-dimethylisoxazol-4-yl)-1-(1-(pyridin-2-yl)ethyl)-1H-pyrrolo[2,3-b]pyridin-3-yl)benzoic acid] | 0.0001 to 1 µM
19 | Cc1noc(C)c1-c1cnc2c(-c3cc(C(=O)O)ccc3F)c(C(F)(F)F)n([C@@H](C)c3ccccn3)c2c1 [P-0238, (S)-3-(6-(3,5-dimethylisoxazol-4-yl)-1-(1-(pyridin-2-yl)ethyl)-2-(trifluoromethyl)-1H-pyrrolo[3,2-b]pyridin-3-yl)-4-fluorobenzoic acid] | 0.0001 to 1 µM
20 | Cc1noc(C)c1-c1cnc2c(c1)c(-c1cccc(C(=O)O)c1)cn2C(c1ccccn1)C1CCCC1 (centres unmarked) [P-0015, 3-(1-(cyclopentyl(pyridin-2-yl)methyl)-5-(3,5-dimethylisoxazol-4-yl)-1H-pyrrolo[2,3-b]pyridin-3-yl)benzoic acid] | 0.0001 to 1 µM
21 | Cc1noc(C)c1-c1cnc2c(c1)c(-c1ccc(C(=O)O)cc1OC(F)(F)F)cn2-c1ccccc1 [P-0188, 4-(5-(3,5-dimethylisoxazol-4-yl)-1-phenyl-1H-pyrrolo[2,3-b]pyridin-3-yl)-3-(trifluoromethoxy)benzoic acid] | 0.0001 to 1 µM
22 | Cc1noc(C)c1-c1cnc2c(c1)c(-c1ccc(C(=O)O)cc1OC(F)(F)F)cn2C1CCC(F)(F)CC1 [P-0227, 4-(1-(4,4-difluorocyclohexyl)-5-(3,5-dimethylisoxazol-4-yl)-1H-pyrrolo[2,3-b]pyridin-3-yl)-3-(trifluoromethoxy)benzoic acid] | 0.0001 to 1 µM
23 | Cc1noc(C)c1-c1cnc2c(-c3ccccc3)cn(-c3c(Cl)cccc3C#N)c2c1 [P-0207, 3-chloro-2-(6-(3,5-dimethylisoxazol-4-yl)-3-phenyl-1H-pyrrolo[3,2-b]pyridin-1-yl)benzonitrile] | 1 to 8 µM
